Values of other authors as cited in US20140113009A1, “CONTROLLED APPLICATION OF CROSS-LINKING AGENT” (Avedro, Inc., priority 2012, published 2014).

How the values were obtained:
[1] = combined with greater than 40 mM ascorbic acid; after 4 hours of light exposure
[2] = compared with Riboflavin

| SMILES | Riboflavin remains unreacted [1] | solubility in water relative to Riboflavin [2] |
| --- | --- | --- |
| O=C1O[C@H]([C@@H](O)CO)C(O)=C1O [ascorbic acid] | more than 90% | – |
| Cc1cc2nc3c(=O)[nH]c(=O)nc-3n(C[C@H](O)[C@H](O)[C@H](O)COP(=O)(O)O)c2cc1C [FMN, Riboflavin-5-phosphate] | – | more soluble in water |
